{"source": "patent US7759345B2", "about": "“Antitumoral derivatives of ET-743” (priority 2001, dated 2010)", "key": {"[1]": {"tested_on": "Myelo", "excerpt": "(§2) Toxicity was asssessed by the methods reported in Toxicology in Vitro, 15 (2001) 571-577, J. Luber Narod et al.: “Evaluation of the use of in vitro methodolodies as tools for screening new compounds for potential in vivo toxicity”."}, "[2]": {"tested_on": "DU-145", "assay": "Inhibition of cells growth by colorimetric assay (SRB), DU-145", "format": "cell-based", "conditions": "SRB, 48 hours exposure", "procedure,_shortened": "(§1)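 5×10^3 cells/well; 18 h attach; compound 10–10^−8 μg/ml in DMSO/EtOH/PBS (0.5:0.5:99), 48 h, 37 °C, 5% CO2; cold 50% TCA fix 60 min 4 °C; 0.4% SRB 10 min RT; Tris solubilization; OD 490 nm; triplicates.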"}, "[3]": {"tested_on": "PANC-1", "assay": "Inhibition of cells growth by colorimetric assay (SRB), PANC-1", "format": "cell-based", "conditions": "SRB, 48 hours exposure", "procedure,_shortened": "as §1"}, "[4]": {"tested_on": "Skeletal", "excerpt": "as §2"}, "[5]": {"tested_on": "HMEC1", "assay": "Inhibition of cells growth by colorimetric assay (SRB), HMEC1", "format": "cell-based", "conditions": "SRB, 48 hours exposure", "procedure,_shortened": "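Sulforhodamine B protein-stain readout (490 nm) after 48 h drug exposure, with GI, TGI and LC parameters calculated from triplicate means. Cells seeded at 5×10^3 per well, allowed 18 h drug-free attachment; dose range 10 to 10^−8 μg/ml, vehicle DMSO/EtOH/PBS (0.5:0.5:99).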"}, "[6]": {"tested_on": "LoVo-Dox", "assay": "Inhibition of cells growth by colorimetric assay (SRB), LoVo-Dox", "format": "cell-based", "conditions": "SRB, 48 hours exposure", "procedure,_shortened": "as §1"}, "[7]": {"tested_on": "K-562", "assay": "Inhibition of cells growth by colorimetric assay (SRB), K-562", "format": "cell-based", "conditions": "K-562, SRB, 48 hours exposure", "procedure,_shortened": "as §1"}, "[8]": {"tested_on": "SK-OV-3", "assay": "Inhibition of cells growth by colorimetric assay (SRB), SK-OV-3", "format": "cell-based", "conditions": "SRB, 48 hours exposure", "procedure,_shortened": "as §1"}, "[9]": {"tested_on": "LNCaP", "assay": "Inhibition of cells growth by colorimetric assay (SRB), LNCaP", "format": "cell-based", "conditions": "LNCAP, SRB, 48 hours exposure", "procedure,_shortened": "as §1"}, "[10]": {"tested_on": "HT-29", "assay": "Inhibition of cells growth by colorimetric assay (SRB), HT-29", "format": "cell-based", "conditions": "SRB, 48 hours exposure", "procedure,_shortened": "as §1"}, "[11]": {"tested_on": "IGROV-1", "assay": "Inhibition of cells growth by colorimetric assay (SRB), IGROV-1", "format": "cell-based", "conditions": "IGROV, SRB, 48 hours exposure", "procedure,_shortened": "as §1"}, "[12]": {"tested_on": "SK-MEL-28", "assay": "Inhibition of cells growth by colorimetric assay (SRB), SK-MEL-28", "format": "cell-based", "conditions": "MEL-28, SRB, 48 hours exposure", "procedure,_shortened": "as §1"}, "[13]": {"tested_on": "Kidney", "excerpt": "as §2"}, "[14]": {"tested_on": "Liver", "excerpt": "as §2"}, "[15]": {"tested_on": "A-549", "assay": "Inhibition of cells growth by colorimetric assay (SRB), A-549", "format": "cell-based", "conditions": "A-549, SRB, 48 hours exposure", "procedure,_shortened": "as §1"}, "[16]": {"tested_on": "Heart", "excerpt": "as §2"}, "[17]": {"tested_on": "LoVo", "assay": "Inhibition of cells growth by colorimetric assay (SRB), LoVo", "format": "cell-based", "conditions": "LOVO, SRB, 48 hours exposure", "procedure,_shortened": "as §1"}, "[18]": {"tested_on": "SK-BR-3", "assay": "Inhibition of cells growth by colorimetric assay (SRB), SK-BR-3", "format": "cell-based", "conditions": "SK-BR3, SRB, 48 hours exposure", "procedure,_shortened": "as §1"}, "[19]": {"tested_on": "IGROV-ET", "assay": "Inhibition of cells growth by colorimetric assay (SRB), IGROV-ET", "format": "cell-based", "conditions": "IGROV-ET, SRB, 48 hours exposure", "procedure,_shortened": "as §1"}}, "data": [{"molecule": "COc1cc2c(cc1OC(=O)Cc1cc(=O)oc3cc(N(C)C)ccc13)CCN[C@]21CS[C@@H]2c3c(OC(C)=O)c(C)c4c(c3[C@H](COC1=O)N1C2[C@H]2c3c(cc(C)c(OC)c3OC(=O)Cc3cc(=O)oc5cc(N(C)C)ccc35)C[C@@H]([C@@H]1O)N2C)OCO4", "note": "(some centres unmarked) [Compound 77]", "values": [{"measurement": "Toxicity Data Myelo", "setting": "[1]", "result": "8.52E-09"}, {"measurement": "DU-145 TGI", "setting": "[2]; DU-145", "result": "1.45E-09"}, {"measurement": "GI50", "setting": "[2]; DU-145, read-out: DU-145 GI50", "result": 0.488, "unit": "nM"}, {"measurement": "CC50", "setting": "[2]; Homo sapiens, DU-145, 48 h, read-out: DU-145 LC50, DU-145", "result": 10100, "unit": "nM"}, {"measurement": "GI50", "setting": "[3]; Homo sapiens, PANC-1, 48 h, PANC-1, read-out: PANC-1 GI50", "result": 3.27, "unit": "nM"}, {"measurement": "LC50 (concentration for 50% net cell kill)", "setting": "[3]; Homo sapiens, PANC-1, 48 h, read-out: PANC-1 LC50, PANC-1", "result": 6300, "unit": "nM"}, {"measurement": "PANC-1 TGI", "setting": "[3]; PANC-1", "result": "9.14E-09"}, {"measurement": "Toxicity Data Skeletal", "setting": "[4]", "result": "2.20E-09"}, {"measurement": "HMEC-1 TGI", "setting": "[5]; HMEC-1", "result": "5.28E-08"}, {"measurement": "GI50", "setting": "[5]; HMEC-1, read-out: HMEC-1 GI50", "result": 5.28, "unit": "nM"}, {"measurement": "LC50", "setting": "[5]; Homo sapiens, HMEC-1, 48 h, read-out: HMEC-1 LC50, HMEC-1", "result": 10100, "unit": "nM"}, {"measurement": "CC50", "setting": "[6]; Homo sapiens, 48 h, read-out: LOVO-DOX LC50, LOVO-DOX", "result": 10100, "unit": "nM"}, {"measurement": "LOVO-DOX TGI", "setting": "[6]; LOVO-DOX", "result": "9.39E-08"}, {"measurement": "GI50", "setting": "[6]; LOVO-DOX, read-out: LOVO-DOX GI50", "result": 31.3, "unit": "nM"}, {"measurement": "K-562 TGI", "setting": "[7]", "result": "7.77E-10"}, {"measurement": "GI50", "setting": "[7]; read-out: K-562 GI50", "result": 0.277, "unit": "nM"}, {"measurement": "LC50 (50% cell killing)", "setting": "[7]; read-out: K-562 LC50", "result": 37.9, "unit": "nM"}, {"measurement": "GI50", "setting": "[8]; Homo sapiens, SK-OV-3, 48 h, SK-OV3, read-out: SK-OV3 GI50", "result": 2.55, "unit": "nM"}, {"measurement": "LC50", "setting": "[8]; Homo sapiens, SK-OV-3, 48 h, read-out: SK-OV3 LC50, SK-OV3", "result": 10100, "unit": "nM"}, {"measurement": "SK-OV3 TGI", "setting": "[8]; SK-OV3", "result": "7.76E-09"}, {"measurement": "LNCAP TGI", "setting": "[9]", "result": "6.12E-10"}, {"measurement": "GI50", "setting": "[9]; read-out: LNCAP GI50", "result": 0.328, "unit": "nM"}, {"measurement": "CC50", "setting": "[9]; read-out: LNCAP LC50", "result": 1.58, "unit": "nM"}, {"measurement": "HT-29 TGI", "setting": "[10]; HT-29", "result": "9.52E-09"}, {"measurement": "GI50", "setting": "[10]; HT-29, read-out: HT-29 GI50", "result": 2.96, "unit": "nM"}, {"measurement": "LC50 (concentration for 50% cell killing)", "setting": "[10]; Homo sapiens, HT-29, 48 h, read-out: HT-29 LC50, HT-29", "result": 10100, "unit": "nM"}, {"measurement": "IGROV TGI", "setting": "[11]", "result": "1.53E-09"}, {"measurement": "GI50", "setting": "[11]; read-out: IGROV GI50", "result": 0.454, "unit": "nM"}, {"measurement": "CC50", "setting": "[11]; read-out: IGROV LC50", "result": 8.82, "unit": "nM"}, {"measurement": "MEL-28 TGI", "setting": "[12]", "result": "5.06E-10"}, {"measurement": "GI50", "setting": "[12]; read-out: MEL-28 GI50", "result": 0.266, "unit": "nM"}, {"measurement": "CC50", "setting": "[12]; read-out: MEL-28 LC50", "result": 0.962, "unit": "nM"}, {"measurement": "Toxicity Data Kidney", "setting": "[13]", "result": "3.22E-09"}, {"measurement": "Toxicity Data Liver", "setting": "[14]", "result": "9.53E-09"}, {"measurement": "TGI A-549", "setting": "[15]", "result": "3.64E-09"}, {"measurement": "GI50", "setting": "[15]; read-out: GI50 A-549", "result": 2.11, "unit": "nM"}, {"measurement": "LC50 (concentration for 50% cell killing)", "setting": "[15]; read-out: A-549 LC50", "result": 6.29, "unit": "nM"}, {"measurement": "Toxicity Data Heart", "setting": "[16]", "result": "1.64E-08"}, {"measurement": "LOVO TGI", "setting": "[17]", "result": "3.96E-09"}, {"measurement": "GI50", "setting": "[17]; read-out: LOVO GI50", "result": 1.91, "unit": "nM"}, {"measurement": "LC50 (concentration for 50% cell killing)", "setting": "[17]; read-out: LOVO LC50", "result": 8.21, "unit": "nM"}, {"measurement": "SK-BR3 TGI", "setting": "[18]", "result": "2.04E-09"}, {"measurement": "GI50", "setting": "[18]; read-out: SK-BR3 GI50", "result": 0.475, "unit": "nM"}, {"measurement": "CC50", "setting": "[18]; read-out: SK-BR3 LC50", "result": 8.12, "unit": "nM"}, {"measurement": "IGROV-ET TGI", "setting": "[19]", "result": "9.57E-08"}, {"measurement": "GI50", "setting": "[19]; read-out: IGROV-ET GI50", "result": 4.22, "unit": "nM"}, {"measurement": "CC50", "setting": "[19]; read-out: IGROV-ET LC50", "result": 303, "unit": "nM"}]}]}
